Test system: Rat aortic vascular smooth muscle cells
Conditions: positive control (FIG. 22)
Description: Cells were seeded at 10,000 cells/cm^2. At 70% confluency, cells were incubated with nanoparticles for 4 hours following which cell viability was determined using a LIVE/DEAD Cell Viability assay (Molecular Probes, Grand Island, N.Y.). Cells fluorescing green were considered alive while cells fluorescing red were considered dead. Additionally, proliferation of cells was estimated using the MTT (3-(4,5-Dimethyl-2-thiazolyl)-2,5-diphenyl-2H-tetrazolium bromide) assay. Briefly, 5 mg of MTT (Sigma Aldrich, St. Louis, Mo.) was dissolved in 10 ml of serum-free media and added to cells. After 4 hours, media was carefully aspirated and the insoluble formazan dye was collected with dimethyl sulfoxide (DMSO) (Sigma Aldrich, St, Louis, Mo.). Absorbance was read at 560 nm and normalized to control (no treatment) readings.

## CCO [70% ethanol, ethanol]
  Cell death: > 95%
